Measured values reported in paper PMC5813016 (Nature Communications, 2018).
Where “and” joins values, the source holds several entries; their conditions need not be identical. Equal values may be shown once. Entries after “also recorded” stand apart in the source; their conditions may differ.

Legend:
Nav1.5 Sodium Channel = target: T1, Nav1.5 Sodium Channel (Homo sapiens, UniProt Q14524); experiment: FLIPR membrane potential assay, Nav1.5; type: cell-based; settings: for EC50: read-out: Nav1.5 Sodium Channel Agonist EC50; for IC50: read-out: Nav1.5 Sodium Channel Antagonist IC50
T1 construct: expressed in transfected cells
T1 sequence (Q14524 whole entry): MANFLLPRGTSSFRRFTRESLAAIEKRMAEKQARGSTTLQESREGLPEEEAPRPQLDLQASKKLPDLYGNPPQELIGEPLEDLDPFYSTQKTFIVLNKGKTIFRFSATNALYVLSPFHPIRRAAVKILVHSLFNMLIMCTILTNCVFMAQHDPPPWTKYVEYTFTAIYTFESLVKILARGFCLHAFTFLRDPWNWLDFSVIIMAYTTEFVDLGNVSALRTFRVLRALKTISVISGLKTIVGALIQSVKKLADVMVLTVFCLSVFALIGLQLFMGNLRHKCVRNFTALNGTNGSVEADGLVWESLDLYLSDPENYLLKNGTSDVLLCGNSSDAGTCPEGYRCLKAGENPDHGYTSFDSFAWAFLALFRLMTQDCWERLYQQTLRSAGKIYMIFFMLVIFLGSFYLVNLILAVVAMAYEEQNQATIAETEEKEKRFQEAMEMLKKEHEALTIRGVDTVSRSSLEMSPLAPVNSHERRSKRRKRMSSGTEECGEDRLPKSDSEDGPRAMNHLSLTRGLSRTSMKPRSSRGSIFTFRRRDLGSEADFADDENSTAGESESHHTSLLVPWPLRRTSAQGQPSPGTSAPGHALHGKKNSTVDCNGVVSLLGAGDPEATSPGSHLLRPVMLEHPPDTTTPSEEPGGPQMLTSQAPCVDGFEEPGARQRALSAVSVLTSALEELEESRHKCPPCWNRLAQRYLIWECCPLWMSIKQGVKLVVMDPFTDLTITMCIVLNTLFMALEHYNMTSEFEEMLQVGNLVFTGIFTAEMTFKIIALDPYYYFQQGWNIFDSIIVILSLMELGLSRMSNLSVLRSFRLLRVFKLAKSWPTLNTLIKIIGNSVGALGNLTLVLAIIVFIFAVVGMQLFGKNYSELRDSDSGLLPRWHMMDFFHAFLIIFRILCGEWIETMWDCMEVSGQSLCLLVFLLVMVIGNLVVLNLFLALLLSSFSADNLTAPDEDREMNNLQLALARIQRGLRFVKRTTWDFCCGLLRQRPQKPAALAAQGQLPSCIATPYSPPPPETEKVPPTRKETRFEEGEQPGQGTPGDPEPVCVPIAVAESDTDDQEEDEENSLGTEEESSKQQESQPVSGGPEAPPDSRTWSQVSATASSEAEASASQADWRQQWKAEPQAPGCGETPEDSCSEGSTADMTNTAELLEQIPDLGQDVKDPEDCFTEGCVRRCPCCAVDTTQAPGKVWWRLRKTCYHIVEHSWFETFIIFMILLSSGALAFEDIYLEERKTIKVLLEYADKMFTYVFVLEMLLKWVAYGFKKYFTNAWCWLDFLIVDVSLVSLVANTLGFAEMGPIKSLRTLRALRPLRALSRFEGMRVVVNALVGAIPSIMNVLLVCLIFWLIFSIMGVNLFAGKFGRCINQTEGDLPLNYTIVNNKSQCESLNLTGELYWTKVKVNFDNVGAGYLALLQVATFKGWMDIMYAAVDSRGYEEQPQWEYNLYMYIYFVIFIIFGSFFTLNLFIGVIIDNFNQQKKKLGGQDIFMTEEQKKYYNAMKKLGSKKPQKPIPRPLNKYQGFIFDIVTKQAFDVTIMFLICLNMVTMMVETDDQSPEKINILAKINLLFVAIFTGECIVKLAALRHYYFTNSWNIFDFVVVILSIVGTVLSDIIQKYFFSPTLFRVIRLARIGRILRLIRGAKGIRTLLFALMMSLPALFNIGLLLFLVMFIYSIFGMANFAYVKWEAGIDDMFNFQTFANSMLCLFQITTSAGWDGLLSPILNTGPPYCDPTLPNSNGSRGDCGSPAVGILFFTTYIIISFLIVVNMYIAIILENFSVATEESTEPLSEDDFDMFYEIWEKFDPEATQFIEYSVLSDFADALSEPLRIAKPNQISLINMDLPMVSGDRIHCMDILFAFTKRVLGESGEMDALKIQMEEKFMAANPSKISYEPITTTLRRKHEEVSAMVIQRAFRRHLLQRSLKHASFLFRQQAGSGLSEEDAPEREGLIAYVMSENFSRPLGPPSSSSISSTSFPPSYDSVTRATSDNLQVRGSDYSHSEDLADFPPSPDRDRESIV
Description: Sodium channel (Nav1.5) activity was assessed using a FLIPR® based membrane potential assay using cells that stably express the Nav1.5 sodium channel subtype. Cells were plated at 7500 cells per well (50 µl per well) in black walled clear bottomed 384-well plates 24 h prior to running the assay. Medium was removed from the plates and 80 µl of (HBSS)/HEPES containing membrane potential dye (Molecular Devices; Cat # R8123) was added to each well and the plate was returned to the incubator for 1 h to allow dye loading. Compound solution (10 µl) was added to each well by the FLIPR Tetra® instrument to measure agonist activity of the compound by measuring the change in fluorescence from baseline over a 60 s period (Ex 510–545 nM; Em 565–625 nM). Subsequently 10 µl of agonist (EC80 value) was added to each well by the FLIPR Tetra® instrument to evaluate antagonist activity, with the change in fluorescence from baseline being measured over a 60 s period.
In vitro data analysis: Agonist/antagonist curves were plotted from individual experiments, and EC50/IC50 values were determined using a four parameter logistic fit.

[1] = test system: human D1R / β-arrestin2-GFP in U2OS cells; experiment: β-arrestin2-GFP membrane recruitment, TIRFM, U2OS cells; type: cell-based; settings: U2OS cells expressing human D1R, 1 μM agonist, 10 min
Description: This stable U2OS cell line was generated, obtained and licensed from Professor Marc G. Caron, Duke University, Durham, NC, USA. […] The U2OS cells were cultured under antibiotic selection in DMEM (Invitrogen) containing 25 mM glucose and 4 mM L-glutamine supplemented with 10% dialyzed fetal bovine serum, […] Geneticin, […] Zeocin, and 100 U/ml penicillin/streptomycin (all from Invitrogen) and incubated at 37 °C in 5% CO2. Cells from passage four through ten were used in these experiments. Cells were grown in 35 mm glass bottomed imaging dishes (Mattek Corp). Cells were incubated for 1 h in serum free media (SFM) and subsequently treated for 10 min at 37 °C with 0.01% DMSO (control) or 1 μM of all test compounds dissolved in SFM followed by immediate fixation on ice with a 4% paraformaldehyde/1× phosphate buffered saline solution.
TIRFM was used to visualize proteins at the plasma membrane of cells such as D1 receptors and recruited β-arrestin-GFP[65]. All images were captured using a Zeiss PS.1 Elyra Superresolution fluorescence microscope equipped with TIRF module.
Custom image analysis scripts were developed to automatically identify and quantify β-arrestin membrane recruitment. We employed standard methods of image processing based on grayscale morphology. First 16bit images were transformed to 8bit range via square root transformation to improve identification of punctate structure of varying intensity. Images were smoothed with small Gaussian kernel to eliminate noise (h = 2px, σ = 1). At the next step images were transformed via tophat operation with large kernel (radius 30px) to eliminate non-uniformity of the background. Second tophat transform with small kernel (radius 5px) was used to enhance signal and eliminate local intensity variation around puncta. This image was then processed to find locations of puncta intensity peaks via non-maximal suppression filter with 3px radius of region considered in non-maximal suppression, and threshold 20. Finally the boundaries of puncta were identified using marker controlled watershed operation with peaks serving as foreground markers. After having identified each puncta, we used 8bit transformed but otherwise non-processed images to quantify intensity and area of each region. We focused on two endpoints, number of puncta per cell and integrated intensity of puncta per cell (sum of the products of average intensity and area of each puncta within a cell), both adjusted for cell area as described below. The boundaries of the cells were identified via Otsu's method, followed by hole filling and identification of the largest closely connected component. The area of the foreground was used as normalization factor to account for occasional differences in cell areas in the field of view. Specifically all foreground areas across experiment were pooled and divided by the median of the areas to obtain normalization factor for each image. This factor was then used for adjustment for number of puncta and integrated intensity of puncta, which scale with the number of cells. Puncta outside of cell boundaries were filtered out.
The results were aggregated over batches of cells recorded at the same time, with three or more batches per condition, approximately 20 cells per well. The statistical significance was tested via one-way ANOVA with treatment as a factor. To address the problem of severe inequality of variances across the treatment groups assessed via Bartlett′s test, we used square root transformation. All statistical results for the number of puncta per cell and integrated intensity of puncta per cell are presented for transformed variables. Significant ANOVA findings were followed with post-hoc comparisons with Dunnett′s procedure in case of comparisons with the control group or with false discover rate adjustment[69] otherwise. All statistical tests were performed two-tailed at a 5% level of significance.

Human D4R = target: T2, Human D4R (Homo sapiens, UniProt P21917); experiment: Human D4R binding
T2 sequence (P21917 1-419): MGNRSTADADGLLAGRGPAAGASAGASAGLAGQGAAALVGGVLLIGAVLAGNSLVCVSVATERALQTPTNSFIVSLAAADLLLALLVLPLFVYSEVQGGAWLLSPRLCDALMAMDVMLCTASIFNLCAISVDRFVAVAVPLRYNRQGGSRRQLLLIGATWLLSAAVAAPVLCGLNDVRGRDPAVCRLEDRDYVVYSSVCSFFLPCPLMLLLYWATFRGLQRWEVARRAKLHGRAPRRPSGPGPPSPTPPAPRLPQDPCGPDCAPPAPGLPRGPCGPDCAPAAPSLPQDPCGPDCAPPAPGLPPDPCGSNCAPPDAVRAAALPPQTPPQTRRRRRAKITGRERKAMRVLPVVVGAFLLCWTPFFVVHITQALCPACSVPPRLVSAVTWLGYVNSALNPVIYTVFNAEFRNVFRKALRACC

human D1R S188A mutant = experiment: cAMP assay, D1R mutant S188A; settings: relative to wild-type D1R; each table line is one experiment (Experiment # 1-6)

Structure (SMILES) | Ki (Human D4R) [µM] | fold shift of cAMP functional potency, S188A (EC50 mutant/ EC50 WT) (human D1R S188A mutant) | EC50 (Nav1.5 Sodium Channel) [µM] | IC50 (Nav1.5 Sodium Channel) [nM] | β-arrestin-GFP recruitment to the plasma membrane (TIRFM) [1]
Cc1cc(Oc2cccc(O)c2O)ccc1-c1c(C)ncnc1C [PF-1437] | > 10 | 1.0 and 0.8 and 0.7 |  |  | significantly higher signal; also recorded: β-arrestin recruitment profile similar to that of dopamine
Cc1n[nH]c(=O)c(C)c1-c1ccc(Oc2nccc3occc23)cc1F [PF-2334] | > 10 |  |  |  | 
Cc1cc(Oc2nccc3occc23)ccc1-c1c(C)ncc2nccn12 [PF-6142] |  | 2.3 and 2.0 | > 10 | 1090 | significantly lower total signal; also recorded: significantly less recruitment of β-arrestin
Cc1cc(Oc2nccc3occc23)ccc1-n1c(C)nc2cnccc21 [PF-8294] |  |  | > 10 | > 5900 | significantly lower total signal

More lines, main results first:

Ki (Human D4R) [µM] | fold shift of cAMP functional potency, S188A (EC50 mutant/ EC50 WT) (human D1R S188A mutant) | Structure (SMILES) | EC50 (Nav1.5 Sodium Channel) [µM] | IC50 (Nav1.5 Sodium Channel) [nM] | β-arrestin-GFP recruitment to the plasma membrane (TIRFM) [1]
> 10 |  | Cc1cc(Oc2nccc3occc23)ccc1-c1c(C)cnnc1C [PF-1119] | > 10 | 2640 | significantly lower total signal
> 10 | 0.6 | Cc1cc(Oc2nccc3occc23)ccc1-c1c(C)ncnc1C [PF-8871] | > 10 | 8680 | significantly lower signal than in dopamine groups; also recorded: minimal recruitment of β-arrestin
